We go through 16 compounds from the Kinase Knowledgebase extract (Sharma et al. 2016).

The structures appear in SMILES notation.

One assay addresses EGFR (UniProt P00533).

EGFR, sequence (P00533 whole entry, looked up): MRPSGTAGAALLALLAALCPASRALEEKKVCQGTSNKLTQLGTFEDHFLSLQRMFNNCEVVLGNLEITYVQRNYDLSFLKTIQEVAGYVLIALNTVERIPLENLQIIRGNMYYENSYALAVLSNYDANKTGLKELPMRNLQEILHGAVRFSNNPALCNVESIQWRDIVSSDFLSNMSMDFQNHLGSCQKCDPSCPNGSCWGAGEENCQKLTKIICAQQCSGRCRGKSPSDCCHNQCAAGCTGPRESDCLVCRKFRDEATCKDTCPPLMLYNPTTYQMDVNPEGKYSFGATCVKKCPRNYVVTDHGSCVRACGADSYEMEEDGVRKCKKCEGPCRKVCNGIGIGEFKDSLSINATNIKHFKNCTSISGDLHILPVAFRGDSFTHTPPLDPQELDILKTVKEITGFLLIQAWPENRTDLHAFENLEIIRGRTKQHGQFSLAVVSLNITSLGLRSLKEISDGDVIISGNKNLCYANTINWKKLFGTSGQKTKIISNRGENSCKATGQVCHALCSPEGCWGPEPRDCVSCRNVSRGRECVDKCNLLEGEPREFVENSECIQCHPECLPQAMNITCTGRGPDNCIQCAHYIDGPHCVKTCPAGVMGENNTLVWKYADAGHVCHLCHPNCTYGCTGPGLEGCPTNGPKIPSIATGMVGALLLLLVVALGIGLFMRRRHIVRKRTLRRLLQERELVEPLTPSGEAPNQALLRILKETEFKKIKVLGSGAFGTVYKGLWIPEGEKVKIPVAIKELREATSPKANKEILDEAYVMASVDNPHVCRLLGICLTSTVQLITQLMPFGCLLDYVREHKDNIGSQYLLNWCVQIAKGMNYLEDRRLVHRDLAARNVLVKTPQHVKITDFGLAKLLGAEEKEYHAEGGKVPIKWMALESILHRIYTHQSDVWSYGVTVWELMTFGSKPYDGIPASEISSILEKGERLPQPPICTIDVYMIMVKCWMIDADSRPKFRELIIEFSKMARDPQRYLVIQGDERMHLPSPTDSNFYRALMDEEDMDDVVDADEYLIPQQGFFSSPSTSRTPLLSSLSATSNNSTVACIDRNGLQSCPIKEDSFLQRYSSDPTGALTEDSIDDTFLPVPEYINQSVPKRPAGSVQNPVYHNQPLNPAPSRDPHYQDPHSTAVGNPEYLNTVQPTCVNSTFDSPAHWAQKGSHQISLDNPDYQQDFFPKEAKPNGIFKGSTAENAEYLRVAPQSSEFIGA
EGFR, P00533 [L861Q], sequence (P00533 whole entry L861Q, looked up): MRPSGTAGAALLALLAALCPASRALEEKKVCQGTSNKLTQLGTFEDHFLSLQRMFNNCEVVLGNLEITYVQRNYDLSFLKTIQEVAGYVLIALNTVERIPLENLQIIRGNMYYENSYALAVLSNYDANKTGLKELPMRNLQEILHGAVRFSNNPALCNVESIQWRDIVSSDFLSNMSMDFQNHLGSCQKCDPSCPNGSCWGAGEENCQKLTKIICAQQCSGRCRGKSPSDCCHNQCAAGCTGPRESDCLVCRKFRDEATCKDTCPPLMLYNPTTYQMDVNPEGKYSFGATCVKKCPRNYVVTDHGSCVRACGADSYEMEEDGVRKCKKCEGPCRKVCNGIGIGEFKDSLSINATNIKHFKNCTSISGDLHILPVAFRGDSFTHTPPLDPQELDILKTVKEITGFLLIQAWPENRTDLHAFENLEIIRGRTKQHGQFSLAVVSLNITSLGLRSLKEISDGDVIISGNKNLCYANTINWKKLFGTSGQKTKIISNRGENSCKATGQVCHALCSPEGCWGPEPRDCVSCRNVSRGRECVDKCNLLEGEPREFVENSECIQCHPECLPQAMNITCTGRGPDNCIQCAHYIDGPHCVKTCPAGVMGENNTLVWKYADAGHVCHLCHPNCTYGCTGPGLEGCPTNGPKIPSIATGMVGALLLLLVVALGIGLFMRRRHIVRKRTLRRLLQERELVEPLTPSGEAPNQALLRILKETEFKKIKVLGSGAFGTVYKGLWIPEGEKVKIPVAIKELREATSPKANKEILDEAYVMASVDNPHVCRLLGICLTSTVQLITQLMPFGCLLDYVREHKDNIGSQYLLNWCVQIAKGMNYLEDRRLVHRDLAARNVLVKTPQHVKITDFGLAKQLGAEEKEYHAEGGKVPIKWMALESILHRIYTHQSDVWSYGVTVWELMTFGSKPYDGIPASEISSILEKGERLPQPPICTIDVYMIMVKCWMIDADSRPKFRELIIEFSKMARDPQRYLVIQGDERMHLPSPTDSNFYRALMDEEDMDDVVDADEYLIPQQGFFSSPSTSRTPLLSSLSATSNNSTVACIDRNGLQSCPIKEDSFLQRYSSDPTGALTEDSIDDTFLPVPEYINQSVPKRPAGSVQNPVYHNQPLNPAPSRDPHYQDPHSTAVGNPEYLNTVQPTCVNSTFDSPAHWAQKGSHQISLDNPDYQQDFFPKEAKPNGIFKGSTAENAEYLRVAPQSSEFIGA
EGFR, P00533 [L858R], sequence (P00533 whole entry L858R, looked up): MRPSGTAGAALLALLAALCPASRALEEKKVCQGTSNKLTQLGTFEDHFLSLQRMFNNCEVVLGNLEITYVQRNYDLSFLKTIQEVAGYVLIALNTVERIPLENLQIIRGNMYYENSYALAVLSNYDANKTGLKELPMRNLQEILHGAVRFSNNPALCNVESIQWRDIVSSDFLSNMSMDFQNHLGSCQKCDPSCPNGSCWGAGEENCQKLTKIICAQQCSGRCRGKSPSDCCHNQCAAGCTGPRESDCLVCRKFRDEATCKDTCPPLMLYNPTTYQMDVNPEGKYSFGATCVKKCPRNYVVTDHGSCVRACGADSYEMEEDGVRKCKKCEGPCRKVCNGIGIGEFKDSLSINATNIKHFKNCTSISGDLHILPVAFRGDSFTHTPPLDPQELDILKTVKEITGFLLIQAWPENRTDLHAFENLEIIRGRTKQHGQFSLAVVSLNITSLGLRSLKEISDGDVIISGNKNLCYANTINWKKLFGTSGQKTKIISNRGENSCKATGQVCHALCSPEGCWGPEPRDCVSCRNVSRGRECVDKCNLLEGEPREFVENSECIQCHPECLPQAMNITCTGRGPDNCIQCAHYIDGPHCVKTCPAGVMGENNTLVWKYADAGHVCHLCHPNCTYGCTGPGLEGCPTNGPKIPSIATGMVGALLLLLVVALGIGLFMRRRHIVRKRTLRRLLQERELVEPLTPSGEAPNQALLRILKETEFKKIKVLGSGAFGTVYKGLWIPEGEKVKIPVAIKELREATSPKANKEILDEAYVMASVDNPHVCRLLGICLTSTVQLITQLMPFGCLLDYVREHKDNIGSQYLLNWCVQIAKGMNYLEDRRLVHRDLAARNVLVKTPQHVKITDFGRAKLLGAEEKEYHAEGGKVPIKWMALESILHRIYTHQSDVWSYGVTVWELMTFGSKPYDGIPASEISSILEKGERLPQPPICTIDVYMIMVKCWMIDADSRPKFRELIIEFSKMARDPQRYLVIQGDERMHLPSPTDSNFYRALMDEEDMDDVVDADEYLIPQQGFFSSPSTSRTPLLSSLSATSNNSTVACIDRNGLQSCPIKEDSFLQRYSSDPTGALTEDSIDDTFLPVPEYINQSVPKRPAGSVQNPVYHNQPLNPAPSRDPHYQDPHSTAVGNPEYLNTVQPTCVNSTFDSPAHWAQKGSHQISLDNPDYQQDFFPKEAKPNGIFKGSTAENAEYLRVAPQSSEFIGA

Usually IC50 stands for the concentration that inhibits the measured activity by half. A low value points to greater potency in that assay. In the case of `COc1ccc(Cl)cc1-c1cc(Nc2cccc(NC(=O)C3CC3)c2)ncn1`, the IC50 against EGFR was > 10 µM. Consider `COc1ccc(Nc2cc(Nc3cccc(C(F)(F)F)c3)ncn2)cc1NC(=O)C1CC1`, for which the half-inhibitory concentration (IC50) against EGFR stood at 0.12 µM. Turning to `FC(F)(F)c1cccc(Nc2ccnc(Nc3cccc(C(F)(F)F)c3)c2)c1`, the IC50 against EGFR is > 10 µM. The same measure, in the same setting: the figure for `O=C(Nc1cccc(Nc2cc(Oc3cccc(C(F)(F)F)c3)ncn2)c1)C1CC1` is 0.014 µM. Take `O=C(Nc1cccc(Nc2cc(Nc3cccc(C(F)(F)F)c3)ncn2)c1)C1CC1`: the 50% inhibitory concentration (IC50) worked out at 0.063 µM against EGFR, P00533 [L858R]; 0.004 µM against EGFR, P00533 [L861Q]; 0.021 µM on EGFR.

In turn, `FC(F)(F)c1cccc(Nc2cc(Nc3cccc(C(F)(F)F)c3)ncn2)c1` came in with an IC50 against EGFR of 0.032 µM. On to `O=C(Nc1cccc(Nc2ccnc(Nc3cccc(C(F)(F)F)c3)n2)c1)C1CC1`, for which, on EGFR, the IC50 was > 10 µM. On the same count and under the same terms, then `CN(c1cccc(NC(=O)C2CC2)c1)c1cc(Nc2cccc(C(F)(F)F)c2)ncn1`, with > 10 µM; and `CN(c1cccc(C(F)(F)F)c1)c1cc(Nc2cccc(NC(=O)C3CC3)c2)ncn1`, with 0.019 µM. With `O=C(Nc1cccc(Nc2cc(Nc3ccccc3Cl)ncn2)c1)C1CC1`, the IC50 on EGFR was 0.035 µM.

In the case of `COc1ccc(OC)c(-c2cc(Nc3cccc(NC(=O)C4CC4)c3)ncn2)c1`, on EGFR, the half-maximal inhibitory concentration (IC50) was > 10 µM. At EGFR, `Cc1ccccc1Nc1cc(Nc2cccc(NC(=O)C3CC3)c2)ncn1` yielded an IC50 of 0.007 µM. Still for that read-out and setting: then `O=C(Nc1cccc(Nc2cc(NCc3ccc(C(F)(F)F)cc3)ncn2)c1)C1CC1`, with 1.76 µM. As to `FC(F)(F)c1cccc(Oc2cc(Oc3cccc(C(F)(F)F)c3)ncn2)c1`, the half-maximal inhibitory concentration (IC50) on EGFR is > 10 µM. `COc1ccc(Nc2cc(Nc3cccc(C(F)(F)F)c3)ncn2)cc1NC(=O)C1CCCCC1` displayed an IC50 at EGFR of 3.6 µM. For `O=C(Nc1cccc(Nc2nccc(Nc3cccc(C(F)(F)F)c3)n2)c1)C1CC1`, the IC50 against EGFR is > 10 µM.
